Results published in patent US20030190671A1, “Use of metabolic phenotyping in individualized treatment with amonafide” (McGill University, priority 2001, published 2003).
Marks after values point to notes of the source that are not given here.

How the values were obtained:
Assay type in all cases: binding, rabbit
AAMU-Ab = assay: Competitive antigen ELISA, cross-reactivity of AAMU-Ab; conditions: for % Cross-Reaction AAMU-Ab: competitive antigen ELISA, 0 = absence of inhibition or inhibition no higher than 40% at the highest concentration tested (5×10^−3 M)
Method: (§1) Competitive Antigen ELISA
(§2) Buffers and water without additives are filtered through millipore filters and kept for 1 week. BSA, antibodies, Tween™ 20 and horse radish peroxidase conjugates are added to these buffers and water just prior to use. Urine samples are usually collected 4 hours after drinking a cup of coffee (instant or brewed with approximately 100 mg of caffeine per cup) and stored at −80° C. The urine samples are diluted 10 times with sodium phosphate buffer (620 mosm, pH 7.50) and are subsequently diluted with water to give concentrations of AAMU and 1X no higher than 3×10^−6 M in the ELISA. All the pipettings are done with an eight-channel pipette, except those of the antibody and sample solutions. Starting with the last well, 100 μL of a carbonate buffer (100 mM, pH 9.6) containing 2.5 μg mL-1 antibodies are added to each well. After 90 min. at room temperature, the wells are washed three times with 100 mL of TPB: isotonic sodium phosphate buffer (310 mosm, pH 7.50) containing 0.05% Tween™ 20.
(§3) After the initial wash, unoccupied sites are blocked by incubation for 90 min. at room temperature with 100 μL TBP containing 3% BSA. The wells are washed four times with 100 […] TPB. […] The microplate is gently shaken with an orbital shaker at room temperature for 3-4 hours. The wells are washed three times with 100 μL TPB containing 1% BSA and three times with water containing 0.05% Tween™ 20. To the washed plate is added 150 μL of a substrate buffer composed of citric acid (25 mM) and sodium phosphate dibasic buffer (50 mM, pH 5.0) containing 0.06% hydrogen peroxide and 0.04% o-phenylenediamine hydrochloride.
as §2, with “were” for “are”, “They were” for “The urine samples are”, “mL^−1” for “mL-1”, “was pipetted.” for “are added to each well.”, “μL” for “mL”
(§4) After the initial wash, unoccupied sites were blocked by incubation for 90 min. at room temperature with 100 μL TBP containing 3% BSA. The wells were washed four times with 100 μL TPB. […] The microplate was gently shaken with an orbital shaker at room temperature for 3-4 hours. The wells were washed three times with 100 μL with TPB containing 1% BSA and three times with water containing 0.05% Tween™ 20. To the washed plate was added 150 μL of a substrate buffer composed of citric acid (25 mM) and sodium phosphate dibasic buffer (50 mM, pH 5.0) containing 0.06% hydrogen peroxide and 0.04% o-phenylenediamine hydrochloride. After 20 min. at room temperature with shaking, the reaction was stopped with 50 μL of 2.5 N HCl.
(§5) The cross reactivities of AAMU-Ab and 1X-Ab were tested using a wide variety of caffeine metabolites and structural analogs (Table 2 below).

1X-Ab = assay: Competitive antigen ELISA, cross-reactivity of 1X-Ab; conditions: for % Cross-Reaction 1X-Ab: competitive antigen ELISA, 0 = absence of inhibition or inhibition no higher than 40% at the highest concentration tested (5×10^−3 M)
Method: as §1, §2, §3
as §2, with “were” for “are”, “They were” for “The urine samples are”, “mL^−1” for “mL-1”, “was pipetted.” for “are added to each well.”, “μL” for “mL”
as §4, §5

Caffeine-Ab = assay: Competitive antigen ELISA, antibody specificity of caffeine-Ab; conditions: hypothesized ideal antibody specificity; 0 = no inhibition or no higher than 40% at 5×10^−3 M
Method: as §1
(§6) BSA, antibodies, Tween™ 20 and horse radish peroxidase are added to buffers and water just prior to use. Urine samples are usually collected four hours after drinking a cup of coffee (instant or brewed with approximately 100 mg of caffeine per cup) and stored at −20° C. as 1-mL aliquots in 1.5-mL microtubes. For the ELISA, the urine samples are diluted with isotonic sodium phosphate buffer, pH 7.5 (310 mosM) to give concentrations of caffeine, 1.7-DMX and 1,7-DMU no higher than 3×10^−6 M in the microtiter plate wells. Wells of the ELISA plate are washed with a Nunc-Immuno wash 12 washer. Sixteen milliliters of a solution of 6.6 μg ml^−1 of isolated IgG antibodies is prepared in a 100 mM sodium carbonate buffer, pH 9.6, and 150 μL of this solution is pipetted in each well of a microtiter plate using a eight channel pipet (Brinkmann Transferpette™-8 50-200 μL) and 200 μL Flex tips from Brinkmann). After coating the wells with antibodies at 4° C. for 20 hours, the wells are washed 3 times with the isotonic sodium phosphate buffer containing 0.05% Tween™ 20 (IPBT) and properly drained by inverting the plate and absorbing the liquid on to a piece of paper towel. Thirty milliliters of a solution of a IPBT solution containing 1% BSA is prepared and 150 μL of this solution is pipetted in each well using a eight channel pipet (Brinkmann Transferpet-te™-8 50-200 μL) and 200 μL yellow tips (Sarstedt yellow tips for P200 Gilson Pipetman). After 3 hours at room temperature, the wells are washed 3 times with IPBT solution and drained. Samples of 400 μL for determination of caffeine, 1,7-DMX and 1,7-DMU are prepared in 1.5-mL microtubes using Sarstedt yellow tips and a P200 Gilson Pipetman. Then, 200 μL of each sample are pipetted in duplicate in a Falcon 96-well microtest tissue culture plate according to the pattern shown in FIG. 23, using Sarstedt yellow tips and a P200 Gilson Pipetman. Using an eight channel pipet (Brinkmann Transferpette™-8 50-200 μL) and changing the tips of the eight channel pipet (200 μL Flex tips from Brinkmann) at each row, 150 μL of samples are transferred in the corresponding wells of a 96-well ELISA microtiter plate coated with antibodies. After the addition of the samples, the microtiter plates are covered and left standing at room temperature for 2 h. While the plate is left standing the substrate buffer without the hydrogen peroxide and o-phenylenediamine hydrochloride is prepared (25 mM citric acid and 50 mM sodium phosphate dibasic buffer, pH 5.0). The microtiter plate is washed 3 times with the IPBT solution and 3 times with a 0.05% Tween 20 solution and drained. Then, 50 […] of hydrogen peroxide and 40 mg of o-phenylenediamine are added to the substrate buffer. One hundred fifty microliters (150 μL) of the substrate buffer solution is then added to each well using a eight channel pipet (Brinkmann Transferpette™-8 50-200 μL) and 200 μL Flex tips (Brinkmann). The microtiter plate is covered and shaken for 25-30 min at room temperature and the enzymatic reaction is stopped by adding 50 μL/well of a 2.5 N HCl solution using an eight channel pipet (Brinkmann Transferpette™-8 50-200 μL) and 200 μL Flex tips (Brinkmann).

1,7-DMX-Ab = assay: Competitive antigen ELISA, antibody specificity of 1,7-DMX-Ab; conditions: hypothesized ideal antibody specificity; 0 = no inhibition or no higher than 40% at 5×10^−3 M
Method: as §1, §6

1,7-DMU-Ab = assay: Competitive antigen ELISA, antibody specificity of 1,7-DMU-Ab; conditions: hypothesized ideal antibody specificity; 0 = no inhibition or no higher than 40% at 5×10^−3 M
Method: as §1, §6

SMILES | % Cross-Reaction AAMU-Ab (AAMU-Ab) [%] | % Cross-Reaction 1X-Ab (1X-Ab) [%] | % Cross-reaction Caffeine-Ab (Caffeine-Ab) [%] | % Cross-reaction 1,7-DMX-Ab (1,7-DMX-Ab) | % Cross-reaction 1,7-DMU-Ab (1,7-DMU-Ab) [%] | IC50 (1X-Ab; read-out: concentration required for 50% inhibition in the competitive antigen ELISA, 1X-Ab) [µM] | IC50 (AAMU-Ab; read-out: concentration required for 50% inhibition in the competitive antigen ELISA, AAMU-Ab) [µM]
Cn1c(=O)c2c(ncn2C)n(C)c1=O [1,3,7-Trimethyl Xanthine (Caffeine), 1,3,7-trimethylxanthine] | 0 | 0 | 100 | 0^a % | 0 |  | 
Cn1c(=O)c2c([nH]c(=O)n2C)n(C)c1=O [1,3,7-Trimethyluric acid] |  |  | 0 | 0% | 0 |  | 
Cn1c(=O)c2[nH]cnc2n(C)c1=O [1,3-Dimethyl Xanthine (Theophylline), 1,3-Dimethyl Xanthine] | 0 | 0.2 | 0 | 0% | 0 |  | 
Cn1c(=O)c2[nH]c(=O)[nH]c2n(C)c1=O [1,3-Dimethyluric acid] |  |  | 0 | 0% | 0 |  | 
Cn1c(=O)[nH]c2ncn(C)c2c1=O [1,7-Dimethyl Xanthine (Paraxanthine), 1,7-dimethylxanthine] | 0 | 0.5 | 0 | 100% | 0 |  | 
Cn1c(=O)[nH]c2[nH]c(=O)n(C)c2c1=O [1,7-Dimethyluric acid, 1,7-dimethyluric acid] | 0 | 0 | 0 | 0% | 100 |  | 
Cn1c(=O)[nH]c2nc[nH]c2c1=O [1-Methyl Xanthine (1X), 1-methylxanthine] | 0 | 100 | 0 | 0% | 0 | 10 | 
Cn1c(=O)[nH]c2[nH]c(=O)[nH]c2c1=O [1-Methyluric acid, 1-methyluric acid] | 0 | 11 | 0 | 0% | 0 |  | 
Cn1cnc2c1c(=O)[nH]c(=O)n2C [3,7-Dimethyl Xanthine (Theobromine), 3,7-Dimethyl Xanthine] | 0 | 0 | 0 | 0% | 0 |  | 
Cn1c(=O)[nH]c(=O)c2c1[nH]c(=O)n2C [3,7-Dimethyluric acid] |  |  | 0 | 0% | 0 |  | 
Cn1c(=O)[nH]c(=O)c2[nH]cnc21 [3-Methyl Xanthine] | 0 | 0 | 0 | 0% | 0 |  | 
Cn1c(=O)[nH]c(=O)c2[nH]c(=O)[nH]c21 [3-Methyluric acid] |  |  | 0 | 0% | 0 |  | 
CC(=O)Nc1c(N)n(C)c(=O)n(C)c1=O [5-Acetamino-6-amino-1,3-dimethyluracil] | 0 | 0 | 0 | 0% | 0 |  | 
CC(=O)Nc1c(N)[nH]c(=O)[nH]c1=O [5-Acetamino-6-amino-uracil] | 0.6 | 0 | 0 | 0% | 0 |  | 
CC(=O)Nc1c(N)n(C)c(=O)[nH]c1=O [5-acetamino-6-amino-1-methyluracil] | 100 | 0 | 0 | 0% | 0 |  | 1.5
Cn1c(=O)[nH]c2[nH]c(=O)[nH]c(=O)c21 [7-Methyluric acid] |  |  | 0 | 0% | 0 |  | 
